One data set addresses T1, human NMT1 (HsNMT1) (Homo sapiens, UniProt P30419).
T1 sequence (P30419 1-496): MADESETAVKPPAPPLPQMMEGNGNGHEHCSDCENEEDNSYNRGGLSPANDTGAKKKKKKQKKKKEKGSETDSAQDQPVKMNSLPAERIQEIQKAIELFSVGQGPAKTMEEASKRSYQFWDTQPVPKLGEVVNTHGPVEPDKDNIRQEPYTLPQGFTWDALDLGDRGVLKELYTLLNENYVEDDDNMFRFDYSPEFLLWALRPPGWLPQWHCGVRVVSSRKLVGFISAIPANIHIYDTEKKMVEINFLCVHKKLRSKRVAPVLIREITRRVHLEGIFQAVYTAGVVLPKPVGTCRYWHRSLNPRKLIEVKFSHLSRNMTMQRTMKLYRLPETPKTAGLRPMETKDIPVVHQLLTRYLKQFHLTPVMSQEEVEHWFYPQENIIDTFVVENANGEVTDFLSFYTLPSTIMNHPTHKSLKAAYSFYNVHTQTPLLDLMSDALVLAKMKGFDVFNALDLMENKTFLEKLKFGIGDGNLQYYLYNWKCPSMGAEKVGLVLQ
The data set is described as follows: HsNMT1 IC50, fluorescence-based assay detecting CoA with CPM. Type of data set: biochemical. On the procedure:
The IC50 values for human NMT1 (HsNMT1) of four Example compounds of the invention described above (Examples 1-4) and six comparative examples (Comparative Examples 1, 2, 3, 4, 5 and 6) were measured using a sensitive fluorescence-based assay based on detection of CoA by 7-diethylamino-3-(4-maleimido-phenyl)-4-methylcoumarin, as described in Goncalves, V., et al., Analytical Biochemistry, 2012, 421, 342-344 and Goncalves, V., et al., J. Med. Chem, 2012, 55, 3578.

The subject of the next data set is BL-41 cells. The data set is described as follows: CellTiter-Blue assay, BL-41. Type of data set: cell-based, human. Here is the method: (§1) Example NMT inhibitors of the present invention were tested for activity in in vitro CellTiter-Blue® assays using the human cell line MDA MB 231, LY 12318, or BL-41. Comparative Examples 1 and 2 were also tested in the same assays. Compounds having activity in inhibiting metabolic activity in the assay are expected to be useful as agents for preventing and/or treating cancer, by virtue of being inhibitors of human NMT1 and/or NMT2.
(§2) MDA MB 231 cells (obtained from Professor Eric Aboagye, Hammersmith Hospital; cell type: triple negative breast cancer) were grown in low glucose DMEM in 5% CO2 media (supplemented with 10% FBS); LY 12318 cells (obtained from Dr Martin Janz, Max Delbrueck Center; cell type: B cell lymphoma patient derived xenograft) were grown in DMEM media (supplemented with 10% FBS); and BL-41 cells (obtained from Cell Services at the Crick Institute; cell type: Burkitt's Lymphoma) were grown in RPMI-1640 media in 5% CO2 (supplemented with 10% FBS). The MDA MB 231 cells, LY 12318 cells or BL-41 cells were seeded in 96-well plates, 24 h prior to treatment. Cell suspensions were prepared by adjusting the cell density to the appropriate concentration (as stated in the Table 2 below) and 50 μL of the cell suspension was transferred to wells B-G in columns 2-11 of a 96-well plate.
(§3) Twenty-four hours later, 50 μl of growth media (low glucose DMEM in 5% CO2 media supplemented with 10% FBS for MDA MB 231 cells; DMEM media in 5% CO2 supplemented with 10% FBS for LY 12318 cells; or RPMI-1640 media supplemented with 10% FBS for BL-41 cells) containing 0.0004% DMSO (positive control), a mix of Puromycin and Staurosporine (negative controls, final concentration 2 μg/mL and 1 μM respectively) or different concentrations of each Example (Example 1 and 2) or each Comparative Example (Comparative Example 1 and 2) (dilution factor=3, starting at […], final concentration in the plate starting from 10 μM) were prepared and added to a well of the 96-well plate. The plate was incubated at 37° C. with 5% CO2 level.
(§4) 72 hours later, 20 μl/well CellTiter-Blue® (G8081, Promega) were added to the plates according to the manufacturer's protocol, the plate was incubated at 37° C. for 4 h for MDA MB 231 cells and BL-41 cells, or 3 h for LY 12318 cells, followed by measuring the absorbance per well at 570 nm using an EnVision plate reader. The negative control values were subtracted from every value. The metabolic activity was calculated as a percentage relative to the positive control. The EC50 values were calculated using GraphPad Prism.

The test system of another data set is LY 12318 cells. The data set is described as follows: CellTiter-Blue assay, LY 12318. It counts as cell-based, human. The settings on record: 72 h, read-out: LY12318 EC50. Here is the method:
as §1, §2, §3, §4
(In general: Alamar Blue is a resazurin reagent that responds to reducing activity.)

Data set [1] can be described thus: Human liver microsomes half life. It counts as in vitro ADME. The following applies: pH 7.4, read-out: Human liver microsomes t ½. On the procedure:
Example Compound 1 was tested for metabolic stability in an assay using human liver microsomes. Comparative Examples 2, 3, 4, 5 and 6 were also tested in the same assay. Compounds having good metabolic stability in the assay are expected to be especially useful as agents for preventing and/or treating cancer, by having a long half-life in human patients
Frozen human liver microsomes obtained from Corning, USA (cat #452117) were thawed and diluted with 100 mM of pH 7.4 phosphate buffer to give a 1 mg/ml solution. An NADPH regeneration system (NRS) was prepared as a solution containing 13 mM NADP, 33 mM glucose-6-phosphate, 33 mM MgCl2 and 4U/mL glucose-6-phosphate dehydrogenase in 100 mM of pH7.4 phosphate buffer. The test compound (4 mM) in DMSO was diluted with acetonitrile to provide a 100 μM sub-stock then further diluted with 100 mM of pH7.4 phosphate buffer to provide a 2 μM working solution. The liver microsome solution and NRS were incubated at 37° C. before use. To each well of the test plate was dispensed 60 μL of buffer, 50 μL of test compound solution and 10 μL of NRS. A reaction was initiated by addition of 40 μL of liver microsome solution. Wells were incubated for an appropriate time (0, 5, 10, 20, 30 and 60 min) then quenched with 300 μL of acetonitrile containing reference standards atenolol, propranolol, diclofenac, verapamil). All plates were centrifuged at 3500 rpm for 20 min at 15° C. to pellet the debris. 110 μL supernatant was diluted 110 μL water and quantitated using LC-MS/MS.
The results were used to calculate the % Remaining of the test compound at time point t=100×˜[(AUC at time point t)/(AUC at T=0)]. A linear regression curve was fitted to a plot of natural logarithm (In) of AUC against time. The T-half (min)=0.693/slope.
On the technique in general: Liver microsomes are vesicles of endoplasmic reticulum, rich in cytochrome P450 enzymes.

A further data set has as its system MDA MB 231 cells. The data set is described as follows: CellTiter-Blue assay, MDA MB 231. It counts as cell-based, human. On the procedure:
as §1, §2, §3, §4

Consider three compounds from US12304909B2, “Compounds and their use in therapy” (IMPERIAL COLLEGE INNOVATIONS LIMITED, priority 2018, dated 2025).

As usually defined, the IC50 is the midpoint of a concentration-inhibition curve. Broadly, the EC50 is the concentration needed to bring the measured effect to its halfway point.

Structures are written as SMILES. “And” between values parts separate entries of the source, which are not always exact repeats. Equal values may be shown once. Read-outs that look alike come from different tables or passages of the source.

On to `CNC(=O)c1nn(C)c(C)c1CCOc1cc(F)ccc1-c1ccc2ncc(CCN)n2c1` [Comparative Example 2, 4-(2-{2-[3-(2-aminoethyl)imidazo[1,2-a]pyridin-6-yl]-5-fluorophenoxy}ethyl)-N,1,5-trimethyl-1H-pyrazole-3-carboxamide], for which, at human NMT1 (HsNMT1), the IC50 was ~1 nM and 1 nM. The EC50 with BL-41 cells (Homo sapiens, BL-41, 72 h) is 298 nM; in the data set with LY 12318 cells (Homo sapiens), over 370 nM; in the data set with MDA MB 231 cells (Homo sapiens, MDA-MB-231, 72 h), 237 nM. In addition, the half-life at 0.625 µM in data set [1] amounted to 1.95 h.

`Cc1c(CCOc2cc(Cl)ccc2-c2ccc3ncc(CCN)n3c2)c(C(=O)N(C)C)nn1C` [Example Compound 1, 4-(2-{2-[3-(2-aminoethyl)imidazo[1,2-a]pyridin-6-yl]-5-chlorophenoxy}ethyl)-N,N,1,5-tetramethyl-1H-pyrazole-3-carboxamide]: the concentration giving a half-maximal response (EC50) in the data set on BL-41 cells (72 h) stood at 14 nM; with LY 12318 cells, 27 nM; with MDA MB 231 cells (72 h), 20 nM. In data set [1], the half-life at 0.625 µM stood at 1.12 h.

On human NMT1 (HsNMT1), `CNCCc1cnc2ccc(-c3ccc(F)cc3OCCc3c(C)nn(C)c3C)cn12` [Comparative Example 3, [2-(6-{4-fluoro-2-[2-(1,3,5-trimethyl-1H-pyrazol-4-yl)ethoxy]phenyl}imidazo[1,2-a]pyridin-3-yl)ethyl](methyl)amine] gave an IC50 of 10.5 nM. Besides, in data set [1], the half-life at 0.625 µM is 0.617 h.
